Laboratory results from patent publication US9879029B2, “ERK inhibitors” (Eli Lilly and Company, priority 2014, dated 2018).

Legend:
[1] = tested on: RSK1 phosphorylation in HCT116 tumor xenograft; assay: In vivo target inhibition (IVTI) assay (pRSK1 ELISA), HCT116 xenograft; set-up: species or system female athymic nude mice; settings: oral
Protocol: The purpose of this assay is to measure the ability of a test compound to inhibit ERK1/2 substrate phosphorylation in an animal model. Implant female athymic nude mice (22-25 g) from Harlan Laboratories with 5×10e^6 HCT116 colorectal cancer cells (ATCC, # CCL-247) subcutaneously in the right flank region in 200 μL of 1:1 Hank's Balanced Salt Solution (HBSS)+Matrigel solution. Measure tumor growth and body weight twice per week beginning the seventh day after the implantation. When tumor sizes reach 300-500 mm^3, randomize animals and group into groups of five animals. […]
Pulverize tumors in liquid nitrogen and lyse in 1× lysis buffer (MSD, #R60TX-3) containing 1× halt protease & phosphatase inhibitor cocktail (Thermo Scientific, #0861281), 1 mM phenylmethanesulfonyl fluoride (PMSF) (Sigma, #93482-50ML-F) and 1 μM sodium metavanadate (Sigma, #590088) using Matrix D beads (MP Biomedical, #6913-500) in a FastPrep-24™ Cell Disrupter machine (MP Biomedical) in a cold room (4° C.). […] Cool plate to room temperature and measure the absorbance at or near 562 nm on a plate reader (Envision plate reader from Perkin Elmer). Subtract the average 562 nm absorbance measurement of the blank standard replicates from the 562 nm measurements of all other individual standard and unknown (cell or tumor lysate) sample replicates. […]

[2] = tested on: human colorectal cancer cells HCT116; assay: Xenograft tumor model HCT116; format: in vivo, female athymic nude mice; settings: oral
Protocol: (§1) The purpose of this assay is to measure reduction in tumor volume in response to test compound administration. Expand human colorectal cancer cells HCT116 (ATCC, #CCL-247) or human non-small cell lung cancer cells NCI-H358 (ATCC, # CRL-5807) in culture, harvest and inject 5×10e^6 cells in 200 μL of 1:1 HBSS+matrigel solution subcutaneously on to the rear right flank of female athymic nude mice (22-25 gm, Harlan Laboratories). Expand human pancreatic cancer cells SW1990 (ATCC, # CRL-2172) in culture, harvest and inject 2×10e^6 cells in 200 μL of 1:1 HBSS+matrigel solution subcutaneously on to the rear right flank of female athymic nude mice (22-25 gm, Harlan Laboratories). Expand human pancreatic cancer cells MIA PACA-2 (ATCC, # CRL-1420) or human non-small cell lung cancer cells A549 (ATCC, # CCl-185) in culture, harvest and inject 5×10e^6 cells in 200 μL of 1:1 HBSS+matrigel solution subcutaneously on to the rear right flank of female CB-17 SCID mice (22-25 gm, Charles River Laboratories International Inc.). Expand human melanoma cells A-375 (ATCC, # CRL-1619) in culture, harvest and inject 5×10e^6 cells in 200 μL of 1:1 HBSS+matrigel solution subcutaneously on to the rear right flank of female NIH nude rats (140-160 gm, Taconic Farms). Measure tumor growth and body weight twice per week beginning the seventh day after the implantation. When tumor sizes reach 200-400 mm^3, randomize animals and group into groups of eight to ten animals. Prepare test compound in an appropriate vehicle (vehicle: 1% HEC/0.25% Tween 80/0.05% Antifoam) and administer by oral gavage for 14 to 28 days. Tumor response is determined by tumor volume measurement performed twice a week during the course of treatment.

[3] = tested on: human pancreatic cancer cells SW1990; assay: Xenograft tumor model SW1990; format: in vivo, female athymic nude mice; settings: oral
Protocol: as §1, with “Measure tumor growth and body weight twice per week beginning the seventh day after the implantation. When tumor sizes reach 200-400 mm^3, randomize animals and group into groups of eight to ten animals. Prepare test compound in an appropriate vehicle (vehicle: 1% HEC/0.25% Tween 80/0.05% Antifoam) and administer by oral gavage for 14 to 28 days.” left out

[4] = tested on: human melanoma cells A-375; assay: Xenograft tumor model A-375; format: in vivo, female NIH nude rats; settings: oral; for Regression (%): p <0.001
Protocol: as §1

COCCN1C(=O)c2cc(-c3ccnc(Nc4ccnn4C)c3)sc2C1(C)C [Example 1, 5-(2-Methoxyethyl)-6,6-dimethyl-2-{2-[(1-methyl-1H-pyrazol-5-yl)amino]pyridin-4-yl}-5,6-dihydro-4H-thieno[2,3-c]pyrrol-4-one]
TED50 (pRSK1 inhibition in tumor) [1]: 12 mg/kg
Delta T/C (%) ([2]; HCT116, 10 mg/kg BID, p 0.023): 55%
Delta T/C (%) ([2]; HCT116, 25 mg/kg BID, p <0.001): 89%
Regression (%) ([2]; HCT116, 50 mg/kg BID, p <0.001): −31%
Delta T/C (%) ([2]; HCT116, 50 mg/kg QD, p <0.001): 83%
Delta T/C (%) ([2]; HCT116, 75 mg/kg QD, p <0.001): 98%
Delta T/C (%) ([3]; SW1990, 10 mg/kg BID, p 0.364): 24%
Delta T/C (%) ([3]; SW1990, 30 mg/kg BID, p 0.005): 64%
Regression (%) ([4]; A-375, 3 mg/kg BID): −60%
Delta T/C (%) ([4]; A-375, 3 mg/kg QD, p 0.852): 10%
Regression (%) ([4]; A-375, 15 mg/kg BID): −47%
